From EP1174421A1, “3-AMIDINOBENZENESULFONAMIDE DERIVATIVES, MEDICINAL COMPOSITIONS CONTAINING THE SAME AND INT[…] THE PRODUCTION THEREOF” (Kissei Pharmaceutical Co., Ltd., priority 1999, dated 2000)
Where a name gives a salt, the structure may show the parent alone. Read-outs that look alike come from different tables or passages of the source.

How the values were obtained:
human thrombin = molecular target: T1, human thrombin (Homo sapiens, UniProt P00734); assay: Measurement of inhibitory activity for thrombin (S-2238 chromogenic substrate); type: biochemical
T1 construct: human thrombin (Sigma Chemical Company); purchased Sigma Chemical Company
Procedure: (§1) Five µL of dimethylsulfoxide solution of test compound, 375 µL of tris-hydrochloric acid buffer (pH 8.4) and 100 µL of 1 mM S-2238 (Daiichi Pure Chemicals) aqueous solution were mixed. Then 20 µL of 2.0 U/mL human thrombin (Sigma Chemical Company) in gelatin-glycine buffer was added and the mixture was incubated for 10 minutes at 37 °C. The reaction was terminated with the addition of 100 µL of 60 % acetic acid and absorbance (405 nm) was measured.
The group without test compound was defined as control and the group without human thrombin was defined as blank. […]

[1] = molecular target: T2, human activated blood coagulation factor X (Homo sapiens, UniProt P00742); assay: Measurement of inhibitory activity for activated blood coagulation factor X (S-2222 chromogenic substrate); type: biochemical
T2 construct: purchased Calbiochem Corporation
T2 sequence (P00742 235-488 limits assumed): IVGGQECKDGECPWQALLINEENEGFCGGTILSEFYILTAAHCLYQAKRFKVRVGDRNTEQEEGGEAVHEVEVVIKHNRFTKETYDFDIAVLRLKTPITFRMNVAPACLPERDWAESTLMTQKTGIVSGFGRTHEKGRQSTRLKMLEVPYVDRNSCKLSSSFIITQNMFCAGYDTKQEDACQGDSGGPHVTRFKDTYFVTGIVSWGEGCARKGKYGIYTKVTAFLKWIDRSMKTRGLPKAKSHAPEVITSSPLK
T2 sequence (P00742 41-179 partner limits assumed): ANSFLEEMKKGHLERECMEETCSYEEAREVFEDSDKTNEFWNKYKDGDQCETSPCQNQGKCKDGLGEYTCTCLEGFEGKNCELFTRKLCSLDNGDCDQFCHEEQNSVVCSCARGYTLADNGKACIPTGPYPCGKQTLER
Procedure: as §1, with “S-2222” for “S-2238”, “0.6” for “2.0”, “activated blood coagulation factor X (Calbiochem Corporation)” for “thrombin (Sigma Chemical Company)”
The group without test compound was defined as control and the group without human activated blood coagulation factor X was defined as blank.

Male Wistar rats = assay: Acute toxicity test; type: in vivo; settings: 30 mg/kg, through tail vein (intravenous), groups of 5 rats, survival judged for 24 hours
Procedure: Male Wistar rats aged 7 weeks (SLC) were divided into several groups consisting of 5 rats. Test compound was dissolved at the concentration that became the administration volume of
2.5 mL/kg. The solution was administered through tail vein at an infusion rate of 1 mL/minute. Observations were performed at constant intervals, and survival rate was judged for 24 hours.

normal human plasma = assay: Measurement of anticoagulation effects (plasma prothrombin time); type: biochemical; settings: CT2: concentration that prolonged the clotting time (prothrombin time) of control by 2 times
Procedure: Two µL of dimethylsulfoxide solution of test compound which was put in the process tube was incubated at 37 °C, and 50 µL of normal human plasma (George King Bio-Medical Inc.) was mixed. One minute later, 100 µL of plasma prothrombin time reagent (Neoplastin Plus® , Boehringer Mannheim) was added into the mixture. Prothrombin time was measured with ST4 (Boehringer Mannheim).
The group without test compound was defined as control. The concentration of test compound that prolonged the clotting time of control by 2 times (CT2) was obtained and this value was used as the index of anticoagulation activity.

SMILES	IC50 (human thrombin; IC50, pH 8.4, 10 minutes at 37 °C, absorbance 405 nm, read-out: Inhibitory activity for thrombin) [nM]	IC50 ([1]; IC50, pH 8.4, 10 minutes at 37 °C, absorbance 405 nm, read-out: Inhibitory activity for activated blood coagulation factor X) [nM]	IC50 (human thrombin) [nM]	Death cases (Male Wistar rats)	Death cases (Male Wistar rats; listed as 5-amidino-2-hydroxy-N-[2-[4-[1-(1-iminoethyl)piperidin-4-yl]phenyl]ethyl]benzene)	IC50 [1] [nM]	Anticoagulation effect (normal human plasma) [µM]
CC(C)c1ccc(CCNS(=O)(=O)c2cc(C(=N)N)ccc2O)cc1 [Compound 2, 5-Amidino-N-[2-(4-isopropylphenyl)ethyl]-2-hydroxybenzene-sulfonamide hydrochloride]	101000	64					
CC(=N)N1CCC(c2ccc(CCNS(=O)(=O)c3cc(C(=N)N)ccc3O)cc2)CC1 [Compound 8, 5-Amidino-2-hydroxy-N-[2-[4-[1-(1-iminoethyl)piperidin-4-yl]phenyl]ethyl]benzenesulfonamide dihydorchloride]			> 100000	0/5	no death was observed	87	0.21
CC(=N)N1CC[C@H](Oc2ccc(CCNS(=O)(=O)c3cc(C(=N)N)ccc3O)cc2)C1 [Compound 9, (S)-5-Amidino-2-hydroxy-N-[2-[4-[1-(1-iminoethyl)pyrrolidin-3-yloxylphenyl]ethyl]benzenesulfonamidedihydrochloride]			> 100000			88	0.18
CC(=N)N1CCC(Oc2ccc(CCNS(=O)(=O)c3cc(C(=N)N)ccc3O)cc2)CC1 [Compound 10, 5-Amidino-2-hvdroxv-N-[2-[4-[1-(1-iminoethyl)piperidin-4-yloxy]phenyl]ethyl]benzenesulfonamide dihydrochloride]			> 100000			110	0.22
